Laboratory results reported in patent US9926282B2, “Phthalazinones and isoquinolinones as rock inhibitors” (BRISTOL-MYERS SQUIBB COMPANY, priority 2013, dated 2018).

How the values were obtained:
[1] = target: ROCK1 (Homo sapiens (Human), UniProt Q13464); assay: ROCK assay (LABCHIP peptide phosphorylation), ROCK1; format: biochemical; conditions: 5 μM ATP, 1.5 μM peptide substrate; read-out: ROCK1 IC50
[2] = target: ROCK2 (Homo sapiens (Human), UniProt O75116); assay: ROCK assay (LABCHIP peptide phosphorylation), ROCK2; format: biochemical; conditions: 5 μM ATP, 1.5 μM peptide substrate
Sequence of ROCK2 (O75116 whole entry, species assumed): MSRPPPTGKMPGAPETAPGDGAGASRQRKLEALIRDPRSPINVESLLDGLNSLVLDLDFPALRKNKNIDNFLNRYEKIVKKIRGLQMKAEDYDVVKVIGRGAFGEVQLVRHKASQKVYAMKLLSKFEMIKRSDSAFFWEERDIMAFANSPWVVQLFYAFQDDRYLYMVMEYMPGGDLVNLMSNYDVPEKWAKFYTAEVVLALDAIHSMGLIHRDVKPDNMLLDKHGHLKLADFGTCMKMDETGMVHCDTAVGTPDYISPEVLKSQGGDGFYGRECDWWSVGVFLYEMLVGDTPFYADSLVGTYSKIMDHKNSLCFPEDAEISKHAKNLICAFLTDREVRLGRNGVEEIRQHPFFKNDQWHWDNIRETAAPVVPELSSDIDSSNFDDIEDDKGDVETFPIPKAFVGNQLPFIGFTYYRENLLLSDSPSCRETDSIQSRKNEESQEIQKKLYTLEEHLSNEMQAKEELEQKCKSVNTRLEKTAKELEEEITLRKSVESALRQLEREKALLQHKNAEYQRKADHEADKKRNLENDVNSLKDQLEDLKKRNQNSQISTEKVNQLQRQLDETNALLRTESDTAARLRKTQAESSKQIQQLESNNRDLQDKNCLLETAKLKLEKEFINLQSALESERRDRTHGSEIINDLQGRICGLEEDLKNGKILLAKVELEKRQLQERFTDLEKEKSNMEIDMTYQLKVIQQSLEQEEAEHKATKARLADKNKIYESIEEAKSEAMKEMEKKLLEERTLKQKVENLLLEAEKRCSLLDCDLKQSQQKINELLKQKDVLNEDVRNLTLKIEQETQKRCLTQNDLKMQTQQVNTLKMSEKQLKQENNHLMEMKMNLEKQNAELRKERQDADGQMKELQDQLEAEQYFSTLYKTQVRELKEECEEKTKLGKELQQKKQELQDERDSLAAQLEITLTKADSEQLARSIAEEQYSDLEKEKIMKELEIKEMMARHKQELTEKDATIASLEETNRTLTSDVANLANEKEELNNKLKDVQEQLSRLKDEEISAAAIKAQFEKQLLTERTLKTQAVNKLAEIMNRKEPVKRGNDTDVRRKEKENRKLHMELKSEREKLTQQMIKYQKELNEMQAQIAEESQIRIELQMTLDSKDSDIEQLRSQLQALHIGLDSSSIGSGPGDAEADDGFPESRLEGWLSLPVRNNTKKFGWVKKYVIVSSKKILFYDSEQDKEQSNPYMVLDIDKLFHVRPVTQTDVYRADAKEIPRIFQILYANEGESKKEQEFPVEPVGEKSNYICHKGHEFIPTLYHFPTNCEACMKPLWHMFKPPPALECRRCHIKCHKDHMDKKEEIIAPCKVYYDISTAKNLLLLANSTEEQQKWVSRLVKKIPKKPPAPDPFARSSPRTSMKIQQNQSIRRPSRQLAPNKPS

Sequence of ROCK1 (Q13464 whole entry, species assumed): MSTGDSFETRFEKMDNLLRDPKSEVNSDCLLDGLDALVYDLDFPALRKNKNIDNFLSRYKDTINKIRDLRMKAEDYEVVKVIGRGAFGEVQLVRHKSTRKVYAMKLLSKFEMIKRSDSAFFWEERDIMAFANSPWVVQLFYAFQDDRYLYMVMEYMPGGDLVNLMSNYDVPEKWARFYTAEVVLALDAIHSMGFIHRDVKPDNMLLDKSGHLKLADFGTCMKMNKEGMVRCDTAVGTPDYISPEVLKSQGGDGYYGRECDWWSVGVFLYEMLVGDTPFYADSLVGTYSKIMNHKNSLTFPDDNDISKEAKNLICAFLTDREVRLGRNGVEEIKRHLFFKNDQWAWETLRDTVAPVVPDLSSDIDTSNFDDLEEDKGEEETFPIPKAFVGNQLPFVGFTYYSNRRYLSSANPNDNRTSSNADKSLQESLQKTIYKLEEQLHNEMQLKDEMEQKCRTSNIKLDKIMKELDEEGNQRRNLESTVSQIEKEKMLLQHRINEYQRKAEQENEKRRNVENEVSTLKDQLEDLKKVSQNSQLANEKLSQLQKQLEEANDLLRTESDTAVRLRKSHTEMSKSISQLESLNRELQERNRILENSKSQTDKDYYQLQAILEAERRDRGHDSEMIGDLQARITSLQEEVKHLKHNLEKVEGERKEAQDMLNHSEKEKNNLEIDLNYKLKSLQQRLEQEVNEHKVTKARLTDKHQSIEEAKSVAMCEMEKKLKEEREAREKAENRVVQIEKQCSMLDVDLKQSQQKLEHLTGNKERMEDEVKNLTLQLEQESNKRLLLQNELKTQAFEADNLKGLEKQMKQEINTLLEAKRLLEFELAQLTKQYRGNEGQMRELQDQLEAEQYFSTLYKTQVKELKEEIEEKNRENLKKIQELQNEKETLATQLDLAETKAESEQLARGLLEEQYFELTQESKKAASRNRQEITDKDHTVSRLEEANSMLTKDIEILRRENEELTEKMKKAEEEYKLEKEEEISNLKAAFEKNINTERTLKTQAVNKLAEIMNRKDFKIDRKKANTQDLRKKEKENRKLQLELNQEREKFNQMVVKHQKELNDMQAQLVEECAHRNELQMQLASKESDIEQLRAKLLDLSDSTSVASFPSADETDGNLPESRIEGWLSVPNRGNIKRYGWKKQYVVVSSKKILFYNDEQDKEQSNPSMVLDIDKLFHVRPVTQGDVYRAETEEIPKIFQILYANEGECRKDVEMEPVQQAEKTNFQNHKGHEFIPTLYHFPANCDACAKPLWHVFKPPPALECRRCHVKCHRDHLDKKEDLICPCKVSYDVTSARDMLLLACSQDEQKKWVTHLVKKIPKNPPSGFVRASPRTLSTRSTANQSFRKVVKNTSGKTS

Row | SMILES | IC50 [1] | IC50 [2]
1 | CC(C)(C)OC(=O)N1CC(Cn2nc(C(=O)Nc3ccc(-c4n[nH]c(=O)c5ccccc45)c(Cl)c3)c3ccccc32)C1 [Example 316, tert-butyl 3-[(3-{[3-chloro-4-(4-oxo-3,4-dihydrophthalazin-1-yl)phenyl]carbamoyl}-1H-indazol-1-yl)methyl] azetidine-1-carboxylate] | 0.101 to 1 µM | 0.0001 to 0.1 µM
2 | CC(=O)N1CC(Cn2nc(C(=O)Nc3ccc(-c4n[nH]c(=O)c5ccccc45)cc3)c3ccccc32)C1 [Example 339, 1-((1-Acetylazetidin-3-yl)methyl)-N-(4-(4-oxo-3,4-dihydrophthalazin-1-yl)phenyl)-1H-indazole-3-carboxamide] | 0.0001 to 0.1 µM | 0.0001 to 0.1 µM
3 | O=C(Nc1ccc(-c2n[nH]c(=O)c3ccccc23)cc1)c1nn(CCC(=O)N2CCOCC2)c2ccccc12 [Example 337, 1-(3-Morpholino-3-oxopropyl)-N-(4-(4-oxo-3,4-dihydrophthalazin-1-yl)phenyl)-1H-indazole-3-carboxamide] | 0.0001 to 0.1 µM | 0.0001 to 0.1 µM
4 | O=C(Nc1ccc(-c2n[nH]c(=O)c3ccccc23)c(CO)c1)c1nn(CC2CCOC2)c2cc(F)ccc12 (stereo not drawn) [Example 368, 6-Fluoro-N-(3-(hydroxymethyl)-4-(4-oxo-3,4-dihydrophthalazin-1-yl)phenyl)-1-((tetrahydrofuran-3-yl)methyl)-1H-indazole-3-carboxamide] | 1 to 50 µM | 0.0001 to 0.1 µM
5 | Cc1csc(C(=O)Nc2ccc(-c3n[nH]c(=O)c4ccccc34)cc2)n1 [Example 50, 4-methyl-N-[4-(4-oxo-3,4-dihydrophthalazin-1-yl)phenyl]-1,3-thiazole-2-carboxamide] | 0.0001 to 0.1 µM | 0.0001 to 0.1 µM
6 | O=C(Nc1ccc(-c2n[nH]c(=O)c3ccccc23)cc1)c1csc(-c2ccccc2)n1 [Example 46, N-[4-(4-oxo-3,4-dihydrophthalazin-1-yl)phenyl]-2-phenyl-1,3-thiazole-4-carboxamide] | 1 to 50 µM | 0.0001 to 0.1 µM
7 | O=C(Nc1ccc(-c2n[nH]c(=O)c3ccccc23)cc1)c1nn(CC2CCN(CCCCO)CC2)c2ccccc12 [Example 322, 1-((1-(4-Hydroxybutyl)piperidin-4-yl)methyl)-N-(4-(4-oxo-3,4-dihydrophthalazin-1-yl)phenyl)-1H-indazole-3-carboxamide] | 0.0001 to 0.1 µM | 0.101 to 1 µM
8 | O=C(Cc1ccc(-c2n[nH]c(=O)c3ccccc23)cc1)N1CCCc2ccccc21 [Example 34, 4-{4-[2-oxo-2-(1,2,3,4-tetrahydroquinolin-1-yl)ethyl]phenyl}-1,2-dihydrophthalazin-1-one] | 1 to 50 µM | 0.101 to 1 µM
9 | CN(C(=O)Cc1ccc(-c2n[nH]c(=O)c3ccccc23)cc1)c1ccccc1 [Example 22, N-methyl-2-[4-(4-oxo-3,4-dihydrophthalazin-1-yl)phenyl]-N-phenylacetamide] | 1 to 50 µM | 1 to 50 µM
10 | CC(C)(O)Cn1nc(C(=O)Nc2ccc(-c3n[nH]c(=O)c4ccccc34)cc2)c2ccc(F)cc21 [Example 158, 6-fluoro-1-(2-hydroxy-2-methylpropyl)-N-[4-(4-oxo-3,4-dihydrophthalazin-1-yl)phenyl]-1H-indazole-3-carboxamide] | 0.0001 to 0.1 µM | 0.0001 to 0.1 µM
11 | CC(C)(O)Cn1nc(C(=O)Nc2ccc(-c3n[nH]c(=O)c4ccccc34)cc2)c2ccccc21 [Example 137, 1-(2-hydroxy-2-methylpropyl)-N-[4-(4-oxo-3,4-dihydrophthalazin-1-yl)phenyl]-1H-indazole-3-carboxamide] | 0.0001 to 0.1 µM | 0.0001 to 0.1 µM
12 | O=C(Nc1ccc(-c2n[nH]c(=O)c3ccccc23)cc1)c1nn(CC2CCN(C(=O)OCCF)CC2)c2ccccc12 [Example 350, 2-Fluoroethyl 4-[(3-{[4-(4-oxo-3,4-dihydrophthalazin-1-yl)phenyl]carbamoyl}-1H-indazol-1-yl)methyl]piperidine-1-carboxylate] | 0.0001 to 0.1 µM | 0.0001 to 0.1 µM
13 | O=C(Cc1ccc(-c2n[nH]c(=O)c3ccccc23)cc1)N[C@H]1CCc2ccccc21 [Example 82, (S)—N-(2,3-Dihydro-1H-inden-1-yl)-2-(4-(4-oxo-3,4-dihydrophthalazin-1-yl)phenyl)acetamide] | 1 to 50 µM | 0.101 to 1 µM
14 | CCOc1ccc2c(c1)N(C(=O)Cc1ccc(-c3n[nH]c(=O)c4ccccc34)cc1)CC2 [Example 33, 4-{4-[2-(6-ethoxy-2,3-dihydro-1H-indol-1-yl)-2-oxoethyl]phenyl}-1,2-dihydrophthalazin-1-one] | 0.0001 to 0.1 µM | 0.0001 to 0.1 µM

More lines, now with the values ahead:

Row | IC50 [1] | IC50 [2] | SMILES
15 | 0.0001 to 0.1 µM | 0.0001 to 0.1 µM | CCc1nc2ncccn2c1C(=O)Nc1ccc(-c2n[nH]c(=O)c3ccccc23)cc1 [Example 140, 2-ethyl-N-[4-(4-oxo-3,4-dihydrophthalazin-1-yl)phenyl]imidazo[1,2-a]pyrimidine-3-carboxamide]
16 | 0.0001 to 0.1 µM | 0.0001 to 0.1 µM | Cc1nc(N2CCCc3ccccc32)sc1C(=O)Nc1ccc(-c2n[nH]c(=O)c3ccccc23)cc1 [Example 241, 4-methyl-N-[4-(4-oxo-3,4-dihydrophthalazin-1-yl)phenyl]-2-(1,2,3,4-tetrahydroquinolin-1-yl)-1,3-thiazole-5-carboxamide]
17 | 0.0001 to 0.1 µM | 0.0001 to 0.1 µM | COc1cc2cc(C(=O)Nc3ccc(-c4n[nH]c(=O)c5ccccc45)cc3)oc2cc1F [Example 180, 6-fluoro-5-methoxy-N-[4-(4-oxo-3,4-dihydrophthalazin-1-yl)phenyl]-1-benzofuran-2-carboxamide]
18 | 0.101 to 1 µM | 0.0001 to 0.1 µM | O=C(Nc1ccc(-c2n[nH]c(=O)c3ccccc23)cc1)c1cnn(CC(F)F)c1 [Example 386, 1-(2,2-Difluoroethyl)-N-(4-(4-oxo-3,4-dihydrophthalazin-1-yl)phenyl)-1H-pyrazole-4-carboxamide]
19 | 0.0001 to 0.1 µM | 0.0001 to 0.1 µM | O=C(Nc1ccc(-c2n[nH]c(=O)c3ccccc23)cc1)c1ccc(N2CCCC2)cc1 [Example 60]
20 | 0.0001 to 0.1 µM | 0.0001 to 0.1 µM | O=C(Nc1ccc(-c2n[nH]c(=O)c3ccccc23)cc1)c1cnn(C2C3CCC2CC3)c1 (stereo not drawn) [Example 392, 1-(Bicyclo[2.2.1]heptan-7-yl)-N-(4-(4-oxo-3,4-dihydrophthalazin-1-yl)phenyl)-1H-pyrazole-4-carboxamide]
21 | 0.0001 to 0.1 µM | 0.0001 to 0.1 µM | O=C(Nc1ccc(-c2n[nH]c(=O)c3ccccc23)cc1)c1cnn(-c2ccccc2)c1C(F)(F)F [Example 190, N-[4-(4-oxo-3,4-dihydrophthalazin-1-yl)phenyl]-1-phenyl-5-(trifluoromethyl)-1H-pyrazole-4-carboxamide]
22 | 0.101 to 1 µM | 0.0001 to 0.1 µM | COCC(O)Cn1cc(C(=O)Nc2ccc(-c3n[nH]c(=O)c4ccccc34)cc2)cn1 (stereo not drawn) [Example 379, 1-(2-Hydroxy-3-methoxypropyl)-N-(4-(4-oxo-3,4-dihydrophthalazin-1-yl)phenyl)-1H-pyrazole-4-carboxamide]
23 | 0.101 to 1 µM | 0.101 to 1 µM | O=C(Nc1ccc(-c2n[nH]c(=O)c3ccccc23)cc1)C1CCN(c2ccccc2)C1=O (stereo not drawn) [Example 215, 2-oxo-N-[4-(4-oxo-3,4-dihydrophthalazin-1-yl)phenyl]-1-phenylpyrrolidine-3-carboxamide]
24 | 0.0001 to 0.1 µM | 0.0001 to 0.1 µM | O=C(Nc1ccc(-c2n[nH]c(=O)c3ccccc23)cc1)c1onc2ccccc12 [Example 93, N-[4-(4-oxo-3,4-dihydrophthalazin-1-yl)phenyl]-2,1-benzoxazole-3-carboxamide]
25 | 0.0001 to 0.1 µM | 0.0001 to 0.1 µM | O=C(Nc1ccc(-c2n[nH]c(=O)c3ccccc23)cc1)c1cnn(Cc2ccccc2)c1 [Example 200, 1-benzyl-N-[4-(4-oxo-3,4-dihydrophthalazin-1-yl)phenyl]-1H-pyrazole-4-carboxamide]
26 | 0.0001 to 0.1 µM | 0.0001 to 0.1 µM | CC(C)(O)Cn1cc(C(=O)Nc2ccc(-c3n[nH]c(=O)c4ccccc34)cc2)c2cccnc21 [Example 169, 1-(2-hydroxy-2-methylpropyl)-N-[4-(4-oxo-3,4-dihydrophthalazin-1-yl)phenyl]-1H-pyrrolo[2,3-b]pyridine-3-carboxamide]
27 | 0.101 to 1 µM | 0.0001 to 0.1 µM | CC(C)(C)c1cc(NC(=O)Cc2ccc(-c3n[nH]c(=O)c4ccccc34)cc2)no1 [Example 278, N-(5-tert-butyl-1,2-oxazol-3-yl)-2-[4-(4-oxo-3,4-dihydrophthalazin-1-yl)phenyl]acetamide]
28 | 1 to 50 µM | 1 to 50 µM | O=C(Nc1ccc(-c2n[nH]c(=O)c3ccccc23)cc1)C1CCN(Cc2ccccc2)CC1 [Example 56, 1-benzyl-N-[4-(4-oxo-3,4-dihydrophthalazin-1-yl)phenyl]piperidine-4-carboxamide]
29 | 1 to 50 µM | 0.101 to 1 µM | COc1cc2c(-c3ccc(CC(=O)N4Cc5ccccc5C4)cc3)c[nH]c(=O)c2cc1OC [Example 255, 4-(4-(2-(Isoindolin-2-yl)-2-oxoethyl)phenyl)-6,7-dimethoxyisoquinolin-1(2H)-one]
30 | 0.0001 to 0.1 µM | 0.0001 to 0.1 µM | Cc1c(C(=O)Nc2ccc(-c3n[nH]c(=O)c4ccccc34)cc2)nnn1-c1ccccc1F [Example 222, 1-(2-fluorophenyl)-5-methyl-N-[4-(4-oxo-3,4-dihydrophthalazin-1-yl)phenyl]-1H-1,2,3-triazole-4-carboxamide]
31 | 0.101 to 1 µM | 0.0001 to 0.1 µM | CC(C)(C)n1cc(NC(=O)c2ccncc2)c(C(=O)Nc2ccc(-c3n[nH]c(=O)c4ccccc34)cc2)n1 [Example 234, N-(1-tert-butyl-3-{[4-(4-oxo-3,4-dihydrophthalazin-1-yl)phenyl]carbamoyl}-1H-pyrazol-4-yl)pyridine-4-carboxamide]
32 | 0.0001 to 0.1 µM | 0.0001 to 0.1 µM | COc1ccc2c(C(=O)Nc3ccc(-c4n[nH]c(=O)c5ccccc45)cc3)cnn2c1 [Example 141, 6-methoxy-N-[4-(4-oxo-3,4-dihydrophthalazin-1-yl)phenyl]pyrazolo[1,5-a]pyridine-3-carboxamide]
33 | 0.0001 to 0.1 µM | 0.0001 to 0.1 µM | COc1ccc2cc(C(=O)Nc3ccc(-c4n[nH]c(=O)c5ccccc45)cc3)n(C)c2c1 [Example 127, 6-methoxy-1-methyl-N-[4-(4-oxo-3,4-dihydrophthalazin-1-yl)phenyl]-1H-indole-2-carboxamide]
